# From patent US20190203240A1, “METHODS FOR THE PRODUCTION OF RHAMNOSYLATED FLAVONOIDS” (Universitaet Hamburg, priority 2016, published 2019)
# Values joined by “and” are separate entries in the source; they are usually repeats but may differ in a detail not shown here. Equal values may be shown once.
# Experiments:
# [1] = tested on: lipid peroxides (C11-fluor) in NHEK cells; assay: Protection against UV-induced lipid peroxide in NHEK (C11-fluor probe, flow cytometry); assay type: cell-based, human; conditions: 240 mJ/cm^2 UVB (3538 mJ/cm^2 UVA), 50 μM
# Description: Pre-incubated NHEK were incubated with the test compound for 24 h. Then the specific fluorescence probe for the measurement of hydrogen peroxide (DHR) or lipid peroxides (C11-fluor) was added and incubated for 45 min. Irradiation occurred with in H2O2 determination UVB at 180 mJ/cm^2 (+UVA at 2839 mJ/cm^2) or UVB at 240 mJ/cm^2 (+UVA at 3538 mJ/cm^2) in lipid peroxide, respectively, using a SOL500 Sun Simulator lamp. After irradiation the cells were post-incubated for 30 min before flow-cytometry analysis.
# NF-κB = NF-κB activity in NIH3T3-KBF-Luc cells stimulated with TNFα (luciferase); assay type: cell-based; conditions: +30 ng/ml TNFα
# Description: NIH3T3-KBF-Luc cells were stably transfected with the KBF-Luc plasmid (Sancho (2003) Mol Pharmacol 63:429-438), which contains three copies of NF-κB binding site (from major histocompatibility complex promoter), fused to a minimal simian virus 40 promoter driving the luciferase gene. Cells (1×10^4 for NIH3T3-KBF-Luc) were seeded the day before the assay on 96-well plate. Then the cells were treated with the test substances for 15 min and then stimulated with 30 ng/ml of TNFα. After 6 h, the cells were washed twice with PBS and lysed in 50 μl lysis buffer containing 25 mM Tris-phosphate (pH 7.8), 8 mM MgCl2, 1 mM DTT, 1% Triton X-100, and 7% glycerol during 15 min at RT in a horizontal shaker. Luciferase activity was measured using a GloMax 96 microplate luminometer (Promega) following the instructions of the luciferase assay kit (Promega, Madison, Wis., USA). […] The experiments for each concentration of the test items were done in triplicate wells.
# STAT3 = STAT3 activity in HeLa-STAT3-luc cells stimulated with IFN-γ (luciferase); assay type: cell-based; conditions: +IFNγ 25 U/ml
# Description: HeLa-STAT3-luc cells were stably transfected with the plasmid 4×M67 pTATA TK-Luc. Cells (20×10^3 cells/ml) were seeded 96-well plate the day before the assay. Then the cells were treated with the test substances for […] and then stimulated with IFN-γ 25 IU/ml. After 6 h, the cells were washed twice with PBS and lysed in […] lysis buffer containing 25 mM Tris-phosphate (pH 7.8), 8 mM MgCl2, 1 mM DTT, 1% Triton X-100, and 7% glycerol during […] at RT in a horizontal shaker. Luciferase activity was measured using GloMax 96 microplate luminometer (Promega) following the instructions of the luciferase assay kit (Promega, Madison, Wis., USA). […] The experiments for each concentration of the test items were done in triplicate wells.
# HaCaT cells = assay: Glucose uptake (2-NBDG) in HaCaT keratinocytes; assay type: cell-based; conditions: +2NBDG 50 μM, 24 h
# Description: HaCaT cells (5×10^4) were seeded in 96-well black plates and incubated for 24 h. Then, medium was removed and the cells cultivated in OptiMEM, labeled with 50 μM 2-NBDG (2-[N-(7-nitrobenz-2-oxa-1,3-diazol-4-yl) amino]-2-deoxy-D-glucose and treated with the test substances or the positive control, Rosiglitazone, for 24 h. Medium was removed and the wells were carefully washed with PBS and incubated in PBS (100 μl/well). Finally the fluorescence was measured using the Incucyte FLR software, the data were analyzed by the total green object integrated intensity (GCU×μm2×Well) of the imaging system IncuCyte HD (Essen BioScience). The fluorescence of Rosiglitazone is taken as 100% of glucose uptake, and the glucose uptake was calculated as (% Glucose uptake)=100(T−B)/(R−B), where T (treated) is the fluorescence of test substance-treated cells, B (Basal) is the fluorescence of 2-NBDG cells and […] is the fluorescence of cells treated with Rosiglitazone.
# PGE2 = assay: Anti-inflammatory potential: secreted PGE2 in stimulated NHEK (ELISA); assay type: cell-based, human; conditions: PMA - 1 μg/ml, reference at 10^−6M, cytokine type not given
# Description: NHEK were pre-incubated for 24 h with the test compounds. The medium was replaced with the NHEK culture medium containing the inflammatory inducers (PMA or Poly I:C) and incubated for another 24 hours. Positive and negative controls ran in parallel. At the endpoint the culture supernatants were quantified of secreted IL-8, PGE2 and TNF-α, by means of ELISA.
# fibronectin = assay: Stimulation of fibronectin synthesis in NHDF (ELISA); assay type: cell-based, human; conditions: 72 h incubation, 10 ng/ml
# Description: Tests were performed with normal human dermal fibroblast cultures at the 8th passage. Cells were grown in DMEM supplemented with glutamine at 2 mM, penicillin at 50 U/mL and streptomycin (50 μg/mL) and 10% of fetal calf serum (FCS) at 37° C. in a 5% CO2 atmosphere.
# Fibroblasts were cultured for 24 hours before the cells were incubated with the test compounds for further 72 hours. After the incubation the culture supernatants were collected in order to measure the released quantities of procollagen I, VEGF, and fibronectin by means of ELISA. Reference test compounds were vitamin C (procollagen I), PMA (VEGF), and TGF-β (fibronectin).
# [2] = tested on: normal human epidermal keratinocytes (NHEK); assay: Cytotoxicity on NHEK monolayer (MTT reduction assay and morphological observation); assay type: cell-based; conditions: for Viability (%) Mean / Viability (%): MTT; for Viability (%): single values; for Morph. obs.: microscope
# Description: To determine the cytotoxicity of flavonoid-5-O-α-L-rhamnosides tests were performed versus their aglycon derivatives in cell monolayer cultures. For this purpose concentrations ranging from 1 μM to 250 μM were chosen. The viability of normal human epidermal keratinocytes (NHEK) was twice evaluated by a MTT reduction assay and morphological observation with a microscope. NHEK were grown at 37° C. and 5% CO2 aeration in Keratinocyte-SFM medium supplemented with epidermal growth factor (EGF) at 0.25 ng/mL, pituitary extract (PE) at 25 μg/mL and gentamycin (25 μg/mL) for 24 h and were used at the 3rd passage. For cytotoxicity testing, pre-incubated NHEK were given fresh culture medium containing a specific concentration of test compound and incubated for 24 h. After a medium change at same test concentration cells were incubated a further 24 h until viability was determined. Test results are given in Table B2 and illustrated in FIG. 10.
compound,measurement,setting,value
Cc1cc(C(C)(C)C)c(O)c(C(C)(C)C)c1 [BHT],C11-fluor (AU) Mean (1/GMFI),[1],3.3E−04 AU
same,lipid peroxide % Irradiated control,[1],72%
same,lipid peroxide Protection %,[1],37%
same,C11-fluor (AU) 1/GMFI,[1]; single values,3.2E−04 AU and 3.3E−04 AU and 3.5E−04 AU
same,C11-fluor (AU) GMFI,[1]; single values,3139 AU and 3047 AU and 2877 AU
"COc1ccc(-c2coc3cc(O)cc(O[C@@H]4O[C@@H](C)[C@H](O)[C@@H](O)[C@H]4O)c3c2=O)cc1 [BR2, Biochanin A 5-O-α-L-rhamnoside]",% Activation (NF-κB; TNFα = 100%),NF-κB; 10 μM,138.3%
same,RLU 1,NF-κB; 10 μM,205410 RLU
same,RLU 2,NF-κB; 10 μM,202640 RLU
same,RLU 3,NF-κB; 10 μM,202940 RLU
same,RLU MEAN,NF-κB; 10 μM,203663 RLU
same,RLU specific,NF-κB; 10 μM,180300 RLU
same,% Activation (NF-κB; TNFα = 100%),NF-κB; 25 μM,163.2%
same,RLU 1,NF-κB; 25 μM,237390 RLU
same,RLU 2,NF-κB; 25 μM,235850 RLU
same,RLU 3,NF-κB; 25 μM,235350 RLU
same,RLU MEAN,NF-κB; 25 μM,236197 RLU
same,RLU specific,NF-κB; 25 μM,212833 RLU
same,% Activation (STAT3; IFNγ = 100%),STAT3; 25 μM,109.76%
same,RLU 1,STAT3; 25 μM,11157 RLU
same,RLU 2,STAT3; 25 μM,10163 RLU
same,RLU 3,STAT3; 25 μM,10660 RLU
same,RLU MEAN,STAT3; 25 μM,10660 RLU
same,RLU specific,STAT3; 25 μM,8825 RLU
same,% Activation (STAT3; IFNγ = 100%),STAT3; 50 μM,93.74%
same,RLU 1,STAT3; 50 μM,7983 RLU
same,RLU 2,STAT3; 50 μM,9023 RLU
same,RLU 3,STAT3; 50 μM,11110 RLU
same,RLU MEAN,STAT3; 50 μM,9372 RLU
same,RLU specific,STAT3; 50 μM,7537 RLU
same,% Glucose uptake (Rosiglitazone = 100%),HaCaT cells; 25 μM,77.5%
same,Mean (fluorescence),HaCaT cells; 25 μM,1027608
same,Measure 1 (fluorescence),HaCaT cells; 25 μM,998132
same,Measure 2 (fluorescence),HaCaT cells; 25 μM,1149619
same,Measure 3 (fluorescence),HaCaT cells; 25 μM,935073
same,RFU specific,HaCaT cells; 25 μM,994522 RFU
same,% Glucose uptake (Rosiglitazone = 100%),HaCaT cells; 50 μM,129.0%
same,Mean (fluorescence),HaCaT cells; 50 μM,1688513
same,Measure 1 (fluorescence),HaCaT cells; 50 μM,1657600
same,Measure 2 (fluorescence),HaCaT cells; 50 μM,1788604
same,Measure 3 (fluorescence),HaCaT cells; 50 μM,1619334
same,RFU specific,HaCaT cells; 50 μM,1655427 RFU
COc1ccc2c(c1)c(CC(=O)O)c(C)n2C(=O)c1ccc(Cl)cc1 [Indomethacin],% stim. control,PGE2,2%
same,Cytokine [pg/mL] Mean,PGE2,39 pg/mL
same,Cytokine,PGE2; single values,39 pg/mL
TGF-β [listing 1 of 2 here],"Fibronectin (ng/ml), single replicates",fibronectin,11178 ng/mL and 11128 ng/mL
"COc1ccc(C2CC(=O)c3c(O)cc(O)cc3O2)cc1O (stereo not drawn) [Hesperetin, 3′,5,7-Trihydroxy-4′-methoxyflavanone]",Viability (%) Mean,[2]; 1 μM,105%
same,Viability (%),[2]; 1 μM,103% and 106%
same,Viability (%) Mean,[2]; 2.5 μM,103%
same,Viability (%),[2]; 2.5 μM,98% and 109%
same,Viability (%) Mean,[2]; 5 μM,106%
same,Viability (%),[2]; 5 μM,107% and 106%
same,Viability (%) Mean,[2]; 10 μM,103%
same,Viability (%),[2]; 10 μM,101% and 105%
same,Viability (%) Mean,[2]; 25 μM,108%
same,Viability (%),[2]; 25 μM,106% and 109%
same,Viability (%) Mean,[2]; 50 μM,106%
same,Viability (%),[2]; 50 μM,106%
same,Viability (%) Mean,[2]; 100 μM,99%
same,Viability (%),[2]; 100 μM,98% and 100%
same,Viability (%) Mean,[2]; 250 μM,57%
same,Viability (%) Mean,"[2]; 250 μM, listed as hesperetin",about 50%
same,Viability (%),[2]; 250 μM,54% and 59%
TGF-β [listing 2 of 2 here],Fibronectin % Control,fibronectin,181%
same,Fibronectin % Stimulation,fibronectin,81%
same,"Fibronectin (ng/ml), single replicates",fibronectin,10870 ng/mL
"O=C1CC(c2ccc(O)cc2)Oc2cc(O)cc(O)c21 (stereo not drawn) [Naringenin, 4′,5,7-Trihydroxyflavanone]",Viability (%) Mean,[2]; 1 μM,95%
same,Viability (%),[2]; 1 μM,96% and 95%
same,Viability (%) Mean,[2]; 2.5 μM,93%
same,Viability (%),[2]; 2.5 μM,95% and 92%
same,Viability (%) Mean,[2]; 5 μM,92%
same,Viability (%),[2]; 5 μM,93% and 91%
same,Viability (%) Mean,[2]; 10 μM,95%
same,Viability (%),[2]; 10 μM,95%
same,Viability (%) Mean,[2]; 25 μM,92%
same,Viability (%),[2]; 25 μM,89% and 94%
same,Viability (%) Mean,[2]; 50 μM,89%
same,Viability (%),[2]; 50 μM,85% and 94%
same,Viability (%) Mean,[2]; 100 μM,75%
same,Viability (%),[2]; 100 μM,76% and 74%
same,Viability (%) Mean,[2]; 250 μM,47%
same,Viability (%) Mean,"[2]; 250 μM, listed as naringenin",about 50%
same,Viability (%),[2]; 250 μM,48% and 47%
same,Morph. obs.,[2]; 100 μM,"+/−,*"
same,Morph. obs.,[2]; 250 μM,"+/−,*"
